Results published in ChEMBL document CHEMBL5291721, “A preclinical secondary pharmacology resource illuminates target-adverse drug reaction associations of marketed drugs” (Nat Commun, 2023).

Key:
D(1A) dopamine receptor = D(1A) dopamine receptor (Homo sapiens, UniProt P21728); assay type: functional, cell-based
[1] = target: Gamma-aminobutyric acid receptor subunit alpha-1 (Rattus norvegicus, UniProt P62813)
[2] = target: Glutamate receptor ionotropic, NMDA 1 (Rattus norvegicus, UniProt P35439)
Glucocorticoid receptor = target: T1, Glucocorticoid receptor (Homo sapiens, UniProt P04150)
T1 sequence (P04150 whole entry): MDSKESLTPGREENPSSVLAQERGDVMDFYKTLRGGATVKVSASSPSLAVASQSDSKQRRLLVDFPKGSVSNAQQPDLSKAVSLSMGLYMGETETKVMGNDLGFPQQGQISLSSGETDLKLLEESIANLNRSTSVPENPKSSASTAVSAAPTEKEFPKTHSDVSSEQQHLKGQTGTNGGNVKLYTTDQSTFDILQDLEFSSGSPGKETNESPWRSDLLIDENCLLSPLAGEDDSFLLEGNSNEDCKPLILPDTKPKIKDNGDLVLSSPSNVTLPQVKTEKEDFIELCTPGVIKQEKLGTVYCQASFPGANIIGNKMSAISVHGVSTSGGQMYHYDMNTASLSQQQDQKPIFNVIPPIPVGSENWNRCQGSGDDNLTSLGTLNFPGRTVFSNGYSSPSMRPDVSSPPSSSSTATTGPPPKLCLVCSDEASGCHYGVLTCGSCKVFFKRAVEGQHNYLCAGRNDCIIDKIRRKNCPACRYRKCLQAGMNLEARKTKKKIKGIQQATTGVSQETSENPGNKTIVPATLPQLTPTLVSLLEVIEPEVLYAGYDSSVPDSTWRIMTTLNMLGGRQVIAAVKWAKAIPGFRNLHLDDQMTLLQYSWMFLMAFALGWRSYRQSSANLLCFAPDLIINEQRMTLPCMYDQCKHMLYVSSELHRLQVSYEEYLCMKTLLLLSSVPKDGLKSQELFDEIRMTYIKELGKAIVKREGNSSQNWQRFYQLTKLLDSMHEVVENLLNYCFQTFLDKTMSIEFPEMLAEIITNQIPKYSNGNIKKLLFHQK

Histamine H3 receptor = Histamine H3 receptor (Homo sapiens, UniProt Q9Y5N1)
Chain of Histamine H3 receptor (Q9Y5N1 whole entry): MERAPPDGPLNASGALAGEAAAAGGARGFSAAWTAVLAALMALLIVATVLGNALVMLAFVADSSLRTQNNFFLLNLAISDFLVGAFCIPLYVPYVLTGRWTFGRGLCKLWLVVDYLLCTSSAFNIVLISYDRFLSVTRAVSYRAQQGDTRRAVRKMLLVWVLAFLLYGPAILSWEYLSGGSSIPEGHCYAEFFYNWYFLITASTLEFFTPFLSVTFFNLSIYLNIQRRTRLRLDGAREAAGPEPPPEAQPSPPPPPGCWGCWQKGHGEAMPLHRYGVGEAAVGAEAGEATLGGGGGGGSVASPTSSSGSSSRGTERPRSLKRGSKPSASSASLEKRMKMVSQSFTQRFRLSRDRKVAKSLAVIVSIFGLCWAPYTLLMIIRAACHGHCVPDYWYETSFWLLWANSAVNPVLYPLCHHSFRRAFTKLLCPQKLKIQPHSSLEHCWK

[3] = target: T2, 5-hydroxytryptamine receptor 1A (Homo sapiens, UniProt P08908); assay type: functional, cell-based
T2 sequence (P08908 whole entry): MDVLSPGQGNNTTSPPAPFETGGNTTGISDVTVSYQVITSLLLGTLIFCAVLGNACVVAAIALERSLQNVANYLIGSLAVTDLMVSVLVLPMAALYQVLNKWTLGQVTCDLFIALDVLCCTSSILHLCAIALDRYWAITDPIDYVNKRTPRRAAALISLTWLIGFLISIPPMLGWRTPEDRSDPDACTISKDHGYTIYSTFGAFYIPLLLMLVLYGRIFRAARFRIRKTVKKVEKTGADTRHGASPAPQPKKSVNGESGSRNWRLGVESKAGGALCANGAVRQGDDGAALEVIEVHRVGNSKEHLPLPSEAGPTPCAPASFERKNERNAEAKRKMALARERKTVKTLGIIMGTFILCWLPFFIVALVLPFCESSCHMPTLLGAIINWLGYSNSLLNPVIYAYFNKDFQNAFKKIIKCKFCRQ

[4] = target: 3',5'-cyclic-AMP phosphodiesterase 4D (Homo sapiens, UniProt Q08499); assay type: functional
Chain of 3',5'-cyclic-AMP phosphodiesterase 4D (Q08499 whole entry): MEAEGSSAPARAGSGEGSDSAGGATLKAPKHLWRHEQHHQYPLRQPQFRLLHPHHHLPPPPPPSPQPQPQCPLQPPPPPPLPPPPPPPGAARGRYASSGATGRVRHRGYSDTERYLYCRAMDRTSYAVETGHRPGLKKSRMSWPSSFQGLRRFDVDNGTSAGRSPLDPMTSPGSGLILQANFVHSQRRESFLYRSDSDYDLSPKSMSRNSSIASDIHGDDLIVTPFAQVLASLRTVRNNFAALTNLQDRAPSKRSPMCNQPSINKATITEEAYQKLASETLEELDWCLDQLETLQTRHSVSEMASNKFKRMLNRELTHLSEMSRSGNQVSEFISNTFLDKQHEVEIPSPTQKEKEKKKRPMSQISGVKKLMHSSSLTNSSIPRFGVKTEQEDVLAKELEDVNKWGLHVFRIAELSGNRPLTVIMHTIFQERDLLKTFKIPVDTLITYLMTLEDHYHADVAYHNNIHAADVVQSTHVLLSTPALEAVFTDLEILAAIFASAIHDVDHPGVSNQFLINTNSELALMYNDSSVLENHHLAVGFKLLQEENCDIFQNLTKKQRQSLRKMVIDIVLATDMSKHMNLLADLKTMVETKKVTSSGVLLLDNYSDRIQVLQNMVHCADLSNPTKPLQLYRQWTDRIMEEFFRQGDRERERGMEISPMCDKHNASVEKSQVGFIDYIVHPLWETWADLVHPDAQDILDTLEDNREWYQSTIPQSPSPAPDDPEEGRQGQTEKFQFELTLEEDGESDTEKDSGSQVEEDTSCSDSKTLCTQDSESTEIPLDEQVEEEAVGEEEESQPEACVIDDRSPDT

[5] = target: T3, 5-hydroxytryptamine receptor 2C (Homo sapiens, UniProt P28335)
T3 sequence (P28335 whole entry): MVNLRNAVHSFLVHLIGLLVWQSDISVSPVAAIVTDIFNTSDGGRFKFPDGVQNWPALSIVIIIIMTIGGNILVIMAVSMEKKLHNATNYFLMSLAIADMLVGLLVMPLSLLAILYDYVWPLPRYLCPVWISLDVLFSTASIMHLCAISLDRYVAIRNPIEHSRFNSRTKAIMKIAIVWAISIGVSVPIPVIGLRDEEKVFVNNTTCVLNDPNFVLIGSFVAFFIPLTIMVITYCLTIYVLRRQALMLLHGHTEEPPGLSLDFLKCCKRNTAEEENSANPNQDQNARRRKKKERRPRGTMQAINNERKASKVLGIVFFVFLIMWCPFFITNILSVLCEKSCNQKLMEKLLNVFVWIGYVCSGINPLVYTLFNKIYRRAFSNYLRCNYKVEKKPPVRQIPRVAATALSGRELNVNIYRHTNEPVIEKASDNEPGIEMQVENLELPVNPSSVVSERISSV

[6] = target: Neuronal acetylcholine receptor subunit alpha-4 (Homo sapiens, UniProt P43681)
Chain of Neuronal acetylcholine receptor subunit alpha-4 (P43681 whole entry): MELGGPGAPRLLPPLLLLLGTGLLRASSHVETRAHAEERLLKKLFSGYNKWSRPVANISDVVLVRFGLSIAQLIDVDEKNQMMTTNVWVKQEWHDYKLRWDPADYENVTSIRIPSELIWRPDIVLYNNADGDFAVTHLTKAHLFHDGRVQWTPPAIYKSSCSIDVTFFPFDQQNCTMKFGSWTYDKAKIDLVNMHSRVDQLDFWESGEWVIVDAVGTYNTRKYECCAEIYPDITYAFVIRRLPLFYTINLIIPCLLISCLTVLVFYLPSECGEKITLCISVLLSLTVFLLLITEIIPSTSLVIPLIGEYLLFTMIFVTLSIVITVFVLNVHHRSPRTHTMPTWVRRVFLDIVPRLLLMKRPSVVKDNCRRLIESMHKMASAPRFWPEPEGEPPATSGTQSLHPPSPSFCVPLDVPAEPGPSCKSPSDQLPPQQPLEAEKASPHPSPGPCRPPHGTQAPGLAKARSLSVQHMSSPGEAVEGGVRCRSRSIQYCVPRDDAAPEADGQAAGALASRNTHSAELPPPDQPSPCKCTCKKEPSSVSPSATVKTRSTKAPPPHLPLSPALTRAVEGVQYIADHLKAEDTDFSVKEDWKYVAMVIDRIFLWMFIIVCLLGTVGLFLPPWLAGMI

Progesterone receptor = target: T4, Progesterone receptor (Homo sapiens, UniProt P06401); assay type: functional
T4 sequence (P06401 whole entry): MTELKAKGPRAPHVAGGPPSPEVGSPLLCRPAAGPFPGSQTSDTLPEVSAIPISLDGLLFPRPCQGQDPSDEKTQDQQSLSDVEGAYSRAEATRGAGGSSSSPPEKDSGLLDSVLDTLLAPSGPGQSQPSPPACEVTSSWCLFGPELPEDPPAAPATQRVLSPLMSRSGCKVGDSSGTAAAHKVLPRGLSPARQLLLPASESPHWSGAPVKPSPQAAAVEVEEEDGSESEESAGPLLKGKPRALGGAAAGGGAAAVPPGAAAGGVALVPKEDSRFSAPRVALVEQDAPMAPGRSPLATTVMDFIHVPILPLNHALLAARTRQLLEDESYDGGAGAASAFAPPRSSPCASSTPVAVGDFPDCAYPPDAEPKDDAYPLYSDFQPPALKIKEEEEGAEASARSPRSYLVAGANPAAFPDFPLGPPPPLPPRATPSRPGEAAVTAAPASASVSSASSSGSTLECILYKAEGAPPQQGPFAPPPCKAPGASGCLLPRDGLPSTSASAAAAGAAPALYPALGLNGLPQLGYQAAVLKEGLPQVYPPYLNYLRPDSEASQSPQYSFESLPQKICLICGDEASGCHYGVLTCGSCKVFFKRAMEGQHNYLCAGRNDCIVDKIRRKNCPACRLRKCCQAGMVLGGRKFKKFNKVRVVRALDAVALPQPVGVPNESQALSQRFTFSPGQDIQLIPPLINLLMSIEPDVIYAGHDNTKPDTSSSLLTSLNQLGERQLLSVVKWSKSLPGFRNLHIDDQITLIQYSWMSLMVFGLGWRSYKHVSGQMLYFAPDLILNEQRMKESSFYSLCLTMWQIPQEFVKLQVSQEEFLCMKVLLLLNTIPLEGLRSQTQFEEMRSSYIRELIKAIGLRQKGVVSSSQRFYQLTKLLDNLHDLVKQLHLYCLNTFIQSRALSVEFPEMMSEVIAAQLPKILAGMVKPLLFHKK
Note: assay procedure not described here.

Chain of Gamma-aminobutyric acid receptor subunit alpha-1 (P62813 whole entry): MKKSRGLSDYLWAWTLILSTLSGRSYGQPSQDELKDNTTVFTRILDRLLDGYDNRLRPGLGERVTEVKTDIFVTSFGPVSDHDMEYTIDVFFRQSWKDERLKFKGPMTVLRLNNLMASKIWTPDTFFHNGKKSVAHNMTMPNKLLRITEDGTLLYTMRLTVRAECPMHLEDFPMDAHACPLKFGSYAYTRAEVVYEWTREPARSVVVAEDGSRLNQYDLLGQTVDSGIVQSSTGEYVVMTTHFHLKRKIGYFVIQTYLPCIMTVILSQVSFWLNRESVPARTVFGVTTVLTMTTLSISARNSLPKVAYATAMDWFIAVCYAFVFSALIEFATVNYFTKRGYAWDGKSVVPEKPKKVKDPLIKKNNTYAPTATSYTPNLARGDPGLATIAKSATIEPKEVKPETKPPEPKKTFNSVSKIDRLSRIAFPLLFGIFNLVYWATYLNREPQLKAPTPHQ
Chain of D(1A) dopamine receptor (P21728 whole entry): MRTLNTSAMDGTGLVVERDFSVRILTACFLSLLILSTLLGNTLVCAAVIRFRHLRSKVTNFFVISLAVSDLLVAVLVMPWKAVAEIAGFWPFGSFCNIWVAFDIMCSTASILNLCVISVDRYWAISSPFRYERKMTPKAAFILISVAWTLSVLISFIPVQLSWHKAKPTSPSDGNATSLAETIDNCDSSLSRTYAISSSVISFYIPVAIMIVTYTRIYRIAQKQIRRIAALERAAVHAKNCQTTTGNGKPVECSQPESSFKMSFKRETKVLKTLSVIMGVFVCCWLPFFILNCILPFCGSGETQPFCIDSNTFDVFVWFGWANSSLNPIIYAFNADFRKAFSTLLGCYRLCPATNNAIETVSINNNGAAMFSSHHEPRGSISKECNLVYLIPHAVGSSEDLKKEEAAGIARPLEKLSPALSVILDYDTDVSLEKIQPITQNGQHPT

Row | SMILES | AC50 (D(1A) dopamine receptor) [µM] | AC50 [1] [µM] | AC50 [2] [µM] | AC50 (Glucocorticoid receptor) [µM] | AC50 (Histamine H3 receptor) [µM] | AC50 [3] [µM] | AC50 [4] [µM] | AC50 [5] [µM] | AC50 [6] [µM] | AC50 (Progesterone receptor) [µM]
1 | Cc1ccnc2c1NC(=O)c1cccnc1N2C1CC1 [NEVIRAPINE] | > 10 | > 10 | > 10 | > 30 | > 10 | > 10 | > 10 | > 10 |  | 
2 | O=C(c1cc(Cc2n[nH]c(=O)c3ccccc23)ccc1F)N1CCN(C(=O)C2CC2)CC1 [OLAPARIB] | > 10 | > 10 | > 10 | > 30 |  | > 10 | > 30 | > 30 | > 30 | > 30
3 | Fc1ccc([C@@H]2CCNC[C@H]2COc2ccc3c(c2)OCO3)cc1 [PAROXETINE] | > 10 | > 10 | > 10 | > 30 | > 10 | 17 | > 30 | > 30 | > 10 | 
4 | NC(=O)NC(=O)Cc1ccccc1 [PHENACEMIDE] | > 10 | > 10 | > 10 | > 10 |  | > 10 | > 30 | > 30 | > 10 | > 10
5 | c1ccc(C2(N3CCCCC3)CCCCC2)cc1 [PHENCYCLIDINE] | > 30 |  | 0.288 | > 30 | > 30 | > 30 | > 30 |  | > 30 | > 30
6 | CCCN(CCC)S(=O)(=O)c1ccc(C(=O)O)cc1 [PROBENECID] | > 10 | > 10 | > 10 | > 10 |  | > 10 | > 30 | > 30 | > 10 | > 10
7 | CCc1nc(N)nc(N)c1-c1ccc(Cl)cc1 [PYRIMETHAMINE] | > 10 | > 10 | > 10 | > 10 |  | 18 | 12 | > 30 | > 10 | > 10
8 | Cc1cc(C)nc(NS(=O)(=O)c2ccc(N)cc2)n1 [SULFAMETHAZINE] | > 30 | > 10 | > 10 | > 10 |  | > 10 | > 30 | > 30 | > 10 | > 10
9 | CCOC(=O)c1ccc(C#Cc2ccc3c(c2)C(C)(C)CCS3)nc1 [TAZAROTENE] | > 30 | > 10 | > 10 | > 30 | > 10 | > 30 | > 30 | > 30 | > 10 | 
10 | CC(C(=O)O)c1ccc2c(c1)CC(=O)c1ccccc1S2 (stereo not drawn) [ZALTOPROFEN] | > 30 |  | > 30 | > 30 | > 30 | > 30 | 24 | > 30 | > 30 | > 30
